According to EP1523993A1, “Polypeptide compositions with improved stability” (Eli Lilly & Company, priority 1999, dated 2001):

Experiments:
[1] = system: Humulin® N (U40); experiment: Modified 10X Glycerin Stress Test (Mod.10X-GST): HMWP growth by size exclusion HPLC; format: physicochemical, human
Procedure: One milliliter of Humulin® N (U40, Eli Lilly & Co., Indianapolis IN, USA) is spiked with about 160 mg (about 128 µl) of glycerin to be tested. This glycerin level is about ten times the normal level found in commercial products. Another milliliter of Humulin® N U40 is spiked with 128 µL of water. Both samples are stored at 30°C for 7 days. The high molecular weight protein (HMWP) level of the two samples is then measured by size exclusion HPLC chromatography under denaturing conditions [e.g., Waters column labeled "Protein-Pak 125 insulin assay certified", Waters Corporation (Milford, MA, USA) part number 20574; mobile phase 65 parts of a 1 mg/mL L-arginine solution, 20 parts of acetonitrile and 15 parts of glacial acetic acid]. The test samples are solubilized by acidification with a small volume of 9.6 N HCl prior to analysis.
The HMWP growth in the sample is calculated as the HMWP level in the 30°C test sample minus the HMWP level in the water spiked control. Percent growth is reported per 7 day period.

[2] = system: Humulin® R (U40); experiment: 10X Glycerin Stress Test (10X-GST): HMWP growth by size exclusion HPLC; format: physicochemical, human; details: Humulin® R with 160 mg/mL glycerin, 7 days at 30°C minus frozen control
Procedure: The 10X Glycerin Stress Test (10X-GST) measures the formation of covalent dimers and polymers in an insulin composition. Glycerin to be tested is added to Humulin® R (U40, Eli Lilly & Co., Indianapolis IN, USA) to a final concentration of 160 mg/mL of glycerin, i.e., ten times the level of glycerin normally used in this formulation. One aliquot of the resulting formulation is incubated at 30°C for 7 days, while a second aliquot is stored frozen over the same time period. Then, the high molecular weight protein (HMWP) level of the two aliquots is measured by size exclusion HPLC chromatography under denaturing conditions (e.g., Zorbax GF 250 Special column; mobile phase 65 parts of 0.1M ammonium phosphate buffer at pH 7.5 and 35 parts acetonitrile; detection at 214 nm). The growth of HMWP in the test formulation is the concentration of HMWP in the 30°C sample minus the concentration of HMWP in the frozen control.

[3] = Humulin® N with treated or untreated glycerin, 7 days at 30°C, Table 7
[4] = Humulin® N spiked with about 160 mg glycerin per mL, 7 days at 30°C minus water spiked control, Table 5

Mod.10X-GST Test [1, 3] [%]	10X-GST Test [2]	Mod.10X-GST Test [1, 4] [%]	Structure (SMILES)
1.84			OCC(O)CO [Sample 1, glycerin]
1.58			OCC(O)CO [Sample 2, glycerin]
-0.27			OCC(O)CO [Sample 5, glycerin]
4.68	0.13	0.13	OCC(O)CO [Sample 6, glycerin]
3.65	0.22	0.09	OCC(O)CO [Sample 7, glycerin]
	0.01	0.17	OCC(O)CO [Sample 8, glycerin]
-0.03			OCC(O)CO [Sample 10, glycerin]
